Laboratory results taken from publication PMC9519552, “Activation of the human insulin receptor by non-insulin-related peptides” (Nature Communications, 2022).
Like-named read-outs stand apart in the source and are kept apart here. Positions of bridges follow the written chain, without caps; N, C: chain ends. Residues, ends and D or L forms follow the SMILES beside them.

Key:
human IR-A (holoIR-A) = biological target: T1, human IR-A (holoIR-A) (Homo sapiens, UniProt P06213); test: holoIR-A competitive radioligand binding assay (scintillation proximity assay); details: for Ki: IM172N22(-) mutant peptide set; for reduction in ki for hIR-A on substitution: relative to control peptide IM172N22 devoid of N-terminal phenylacetylation; for binding of the mutant peptide to hIR-A (in words): alanine substitution in IM172N22(-)
T1 construct: expressed in transfected cells; host or cells: HEK293 (ATCC #CRL-1573), stably transfected; membrane preparation
In short: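 Membranes from HEK293 cells stably expressing C9-tagged human IR-A were used in a WGA-bead SPA competition assay in 50 mM Tris-HCl pH 7.5, 150 mM NaCl, 0.1% fatty-acid-free BSA. Ten-point 3-fold dilutions were incubated 10 h at room temperature before scintillation counting. Percent specific inhibition was calculated after nonspecific-binding correction, from three independent runs.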

[1] = biological target: T2, human holoIR-A over-expressed in HEK293 cells (Homo sapiens, UniProt P06213); test: Inhibition of hIR phosphorylation by peptides, co-incubated with BHI at its EC50 (ELISA); format: cell-based; details: for hIRA Phosph IC50 Run 1 / hIRA Phosph IC50 Run 2 / hIRA Phosph IC50 Run 3: inhibition of insulin-stimulated phosphorylation; for hIRA Phosph IC50 Run 1: BHI at its EC50, run 1; for hIRA Phosph IC50 Run 2: BHI at its EC50, run 2; for hIRA Phosph IC50 Run 3: BHI at its EC50, run 3; for IC50: read-out: hIRA Phosph IC50 Mean
T2 construct: expressed in transfected cells; host or cells: HEK293, stably transfected
In short: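 Phosphorylation ELISA (TMB, A450) after anti-C9 capture of lysates from stably transfected HEK293 cells expressing C-terminally C9-tagged human holoIR-A, serum-starved overnight in 0.1% BSA/DMEM. Percent specific response versus log concentration, from three independent runs on three days.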

[2] = mean of 3 runs, read-out: hIRA Binding Ki Mean
[3] = run 1, read-out: hIRA Binding Ki Run 1
[4] = run 2, read-out: hIRA Binding Ki Run 2
[5] = run 3, read-out: hIRA Binding Ki Run 3

T2 sequence (P06213 28-1370 isoform P06213-2 limits assumed): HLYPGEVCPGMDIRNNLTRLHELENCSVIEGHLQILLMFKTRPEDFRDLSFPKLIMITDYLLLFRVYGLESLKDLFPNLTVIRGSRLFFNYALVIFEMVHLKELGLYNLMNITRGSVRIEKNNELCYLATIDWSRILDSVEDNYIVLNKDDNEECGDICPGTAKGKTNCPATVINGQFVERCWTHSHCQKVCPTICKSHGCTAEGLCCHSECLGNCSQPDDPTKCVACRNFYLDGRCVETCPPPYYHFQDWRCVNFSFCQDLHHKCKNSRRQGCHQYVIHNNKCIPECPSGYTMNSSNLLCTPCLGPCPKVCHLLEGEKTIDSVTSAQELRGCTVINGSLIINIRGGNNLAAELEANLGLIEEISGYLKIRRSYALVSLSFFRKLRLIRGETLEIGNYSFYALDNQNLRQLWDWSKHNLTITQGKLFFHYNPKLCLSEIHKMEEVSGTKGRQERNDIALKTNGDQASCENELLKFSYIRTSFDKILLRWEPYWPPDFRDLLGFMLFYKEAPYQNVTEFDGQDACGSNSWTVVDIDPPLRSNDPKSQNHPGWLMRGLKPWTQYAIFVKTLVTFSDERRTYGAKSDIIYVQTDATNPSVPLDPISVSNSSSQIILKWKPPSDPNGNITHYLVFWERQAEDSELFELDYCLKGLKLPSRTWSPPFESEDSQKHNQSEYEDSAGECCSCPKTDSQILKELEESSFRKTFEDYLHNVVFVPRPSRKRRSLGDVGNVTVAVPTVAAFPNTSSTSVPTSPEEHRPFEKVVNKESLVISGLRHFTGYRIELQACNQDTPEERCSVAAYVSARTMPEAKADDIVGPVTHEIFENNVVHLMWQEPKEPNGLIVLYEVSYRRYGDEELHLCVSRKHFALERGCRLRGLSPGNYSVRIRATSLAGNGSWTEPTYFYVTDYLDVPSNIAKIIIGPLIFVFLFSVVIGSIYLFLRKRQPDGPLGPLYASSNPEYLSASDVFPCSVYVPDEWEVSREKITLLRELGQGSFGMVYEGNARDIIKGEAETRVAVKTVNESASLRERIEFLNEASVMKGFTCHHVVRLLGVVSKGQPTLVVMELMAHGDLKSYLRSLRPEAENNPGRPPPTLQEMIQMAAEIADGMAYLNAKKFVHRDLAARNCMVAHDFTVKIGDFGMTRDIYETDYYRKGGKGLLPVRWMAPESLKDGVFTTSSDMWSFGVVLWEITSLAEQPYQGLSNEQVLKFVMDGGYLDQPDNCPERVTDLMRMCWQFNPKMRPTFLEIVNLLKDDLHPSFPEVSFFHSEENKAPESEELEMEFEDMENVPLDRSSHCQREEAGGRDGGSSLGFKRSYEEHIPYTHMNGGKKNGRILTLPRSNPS
T2 sequence (P06213 763-1382 partner limits assumed): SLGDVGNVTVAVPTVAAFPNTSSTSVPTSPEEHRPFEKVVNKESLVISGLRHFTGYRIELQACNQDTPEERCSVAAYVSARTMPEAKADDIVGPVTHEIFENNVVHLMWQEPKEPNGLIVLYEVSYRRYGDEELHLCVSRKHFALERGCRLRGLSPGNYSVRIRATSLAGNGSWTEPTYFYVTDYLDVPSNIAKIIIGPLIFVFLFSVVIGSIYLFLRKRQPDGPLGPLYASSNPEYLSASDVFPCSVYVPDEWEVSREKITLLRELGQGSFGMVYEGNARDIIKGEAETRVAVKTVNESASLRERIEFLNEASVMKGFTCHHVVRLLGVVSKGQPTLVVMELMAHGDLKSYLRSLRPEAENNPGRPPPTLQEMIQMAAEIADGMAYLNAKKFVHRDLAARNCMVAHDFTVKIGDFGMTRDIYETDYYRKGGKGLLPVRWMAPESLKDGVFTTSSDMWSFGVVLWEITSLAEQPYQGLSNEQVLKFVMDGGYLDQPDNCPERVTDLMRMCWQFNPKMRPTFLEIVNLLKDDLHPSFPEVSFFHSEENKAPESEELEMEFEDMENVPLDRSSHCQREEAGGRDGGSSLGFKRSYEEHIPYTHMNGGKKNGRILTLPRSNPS
T1 sequence (P06213 28-1370 isoform P06213-2 limits assumed): as the sequence (P06213 28-1370 isoform P06213-2 limits assumed) above
T1 sequence (P06213 763-1382 partner limits assumed): as the sequence (P06213 763-1382 partner limits assumed) above

In the case of CC[C@H](C)[C@H](NC(=O)[C@H](CCC(N)=O)NC(=O)[C@H](C)NC(=O)[C@H](Cc1c[nH]c2ccccc12)NC(=O)[C@H](CCC(=O)O)NC(=O)[C@H](CCC(=O)O)NC(=O)[C@H](CCC(=O)O)NC(=O)[C@H](CC(C)C)NC(=O)[C@H](CO)NC(C)=O)C(=O)N[C@@H](CCC(=O)O)C(=O)N[C@H]1CSSC[C@@H](C(=O)N2CCC[C@H]2C(=O)N2CCC[C@H]2C(=O)N[C@@H](CO)C(=O)N[C@@H](CCC(=O)O)C(=O)N[C@@H](CO)C(N)=O)NC(=O)[C@H](CCC(=O)O)NC(=O)CNC(=O)[C@H](Cc2ccc(O)cc2)NC(=O)[C@H](C(C)C)NC(=O)[C@H](CCC(=O)O)NC1=O [Peptide R16E] (Ac-SLEEEWAQIECEVYGECPPSES-NH2; disulfide 11-17), the Ki (human IR-A (holoIR-A); [2]) is reported as 167 nM, the Ki (human IR-A (holoIR-A); [3]) is reported as 145 nM and the Ki (human IR-A (holoIR-A); [4]) is reported as 184 nM. The Ki (human IR-A (holoIR-A); [5]) was 172 nM, the “hIRA Phosph IC50 Run 1” value [1] was 1117 nM and the “hIRA Phosph IC50 Run 2” value [1] was 1161 nM. For the same molecule, the “hIRA Phosph IC50 Run 3” value [1] was 1465 nM and the IC50 [1] was 1250 nM.

CC[C@H](C)[C@H](NC(=O)[C@H](CCC(N)=O)NC(=O)[C@H](C)NC(=O)[C@H](Cc1c[nH]c2ccccc12)NC(=O)[C@H](CCC(=O)O)NC(=O)[C@H](CCC(=O)O)NC(=O)[C@H](CCC(=O)O)NC(=O)[C@H](CC(C)C)NC(=O)[C@H](C)NC(C)=O)C(=O)N[C@@H](CCC(=O)O)C(=O)N[C@H]1CSSC[C@@H](C(=O)N2CCC[C@H]2C(=O)N2CCC[C@H]2C(=O)N[C@@H](CO)C(=O)N[C@@H](CCC(=O)O)C(=O)N[C@@H](CO)C(N)=O)NC(=O)[C@H](CCCNC(=N)N)NC(=O)CNC(=O)[C@H](Cc2ccc(O)cc2)NC(=O)[C@H](C(C)C)NC(=O)[C@H](CCC(=O)O)NC1=O [Peptide S1A] (Ac-ALEEEWAQIECEVYGRCPPSES-NH2; disulfide 11-17) was tested, and the Ki (human IR-A (holoIR-A); [2]) was 9.1 nM, the Ki (human IR-A (holoIR-A); [3]) was 8.71 nM and the Ki (human IR-A (holoIR-A); [4]) was 8.06 nM. The Ki (human IR-A (holoIR-A); [5]) was 10.5 nM, the “reduction in ki for hIR-A on substitution” value (“reduction in ki” for short) (human IR-A (holoIR-A)) was “lower than 5 fold” and the “hIRA Phosph IC50 Run 1” value [1] was 119 nM. For the same molecule, the “hIRA Phosph IC50 Run 2” value [1] was 127 nM, the “hIRA Phosph IC50 Run 3” value [1] was 121 nM and the IC50 [1] was 122 nM.

Work on CC[C@H](C)[C@H](NC(=O)[C@H](CCC(N)=O)NC(=O)[C@H](C)NC(=O)[C@H](Cc1c[nH]c2ccccc12)NC(=O)[C@H](CCC(=O)O)NC(=O)[C@H](CCC(=O)O)NC(=O)[C@H](CCC(=O)O)NC(=O)[C@H](CC(C)C)NC(=O)[C@H](CO)NC(C)=O)C(=O)N[C@@H](CCC(=O)O)C(=O)N[C@H]1CSSC[C@@H](C(=O)N2CCC[C@H]2C(=O)N2CCC[C@H]2C(=O)N[C@@H](C)C(=O)N[C@@H](CCC(=O)O)C(=O)N[C@@H](CO)C(N)=O)NC(=O)[C@H](CCCNC(=N)N)NC(=O)CNC(=O)[C@H](Cc2ccc(O)cc2)NC(=O)[C@H](C(C)C)NC(=O)[C@H](CCC(=O)O)NC1=O [Peptide S20A] (Ac-SLEEEWAQIECEVYGRCPPAES-NH2; disulfide 11-17) yielded a Ki (human IR-A (holoIR-A); [2]) of 5.4 nM, a Ki (human IR-A (holoIR-A); [3]) of 4.72 nM and a Ki (human IR-A (holoIR-A); [4]) of 5.70 nM. For the same molecule, the Ki (human IR-A (holoIR-A); [5]) was 5.77 nM, the “reduction in ki” value (human IR-A (holoIR-A)) was “lower than 5 fold” and the “hIRA Phosph IC50 Run 1” value [1] was 53 nM. For the same molecule, the “hIRA Phosph IC50 Run 2” value [1] was 40 nM, the “hIRA Phosph IC50 Run 3” value [1] was 53 nM and the IC50 [1] was 48.5 nM.

Work on CC[C@H](C)[C@H](NC(=O)[C@H](CCC(N)=O)NC(=O)[C@H](C)NC(=O)[C@H](Cc1c[nH]c2ccccc12)NC(=O)[C@H](CCC(=O)O)NC(=O)[C@H](CCC(=O)O)NC(=O)[C@H](CCC(=O)O)NC(=O)[C@H](CC(C)C)NC(=O)[C@H](CO)NC(C)=O)C(=O)N[C@@H](CCC(=O)O)C(=O)N[C@H]1CSSC[C@@H](C(=O)N2CCC[C@H]2C(=O)N2CCC[C@H]2C(=O)N[C@@H](CO)C(=O)N[C@@H](CCC(=O)O)C(=O)N[C@@H](C)C(N)=O)NC(=O)[C@H](CCCNC(=N)N)NC(=O)CNC(=O)[C@H](Cc2ccc(O)cc2)NC(=O)[C@H](C(C)C)NC(=O)[C@H](CCC(=O)O)NC1=O [Peptide S22A] (Ac-SLEEEWAQIECEVYGRCPPSEA-NH2; disulfide 11-17) yielded a Ki (human IR-A (holoIR-A); [2]) of 16.2 nM, a Ki (human IR-A (holoIR-A); [3]) of 14.6 nM and a Ki (human IR-A (holoIR-A); [4]) of 16.1 nM. The Ki (human IR-A (holoIR-A); [5]) was 17.8 nM, the “reduction in ki” value (human IR-A (holoIR-A)) was “lower than 5 fold” and the “hIRA Phosph IC50 Run 1” value [1] was 78 nM. The “hIRA Phosph IC50 Run 2” value [1] was 103 nM, the “hIRA Phosph IC50 Run 3” value [1] was 88 nM and the IC50 [1] was 89.8 nM.

Work on CC[C@H](C)[C@H](NC(=O)[C@H](CCC(N)=O)NC(=O)[C@H](C)NC(=O)[C@H](Cc1c[nH]c2ccccc12)NC(=O)[C@H](CCC(=O)O)NC(=O)[C@H](CCC(=O)O)NC(=O)[C@H](CCC(=O)O)NC(=O)[C@H](CC(C)C)NC(=O)[C@H](CO)NC(C)=O)C(=O)N[C@@H](CCC(=O)O)C(=O)N[C@H]1CSSC[C@@H](C(=O)N2CCC[C@H]2C(=O)N2CCC[C@H]2C(=O)N[C@@H](CO)C(=O)N[C@@H](CCC(=O)O)C(=O)N[C@@H](CO)C(N)=O)NC(=O)[C@H](CCCNC(=N)N)NC(=O)CNC(=O)[C@H](Cc2ccc(O)cc2)NC(=O)[C@H](C)NC(=O)[C@H](CCC(=O)O)NC1=O [Peptide V13A] (Ac-SLEEEWAQIECEAYGRCPPSES-NH2; disulfide 11-17) yielded a Ki (human IR-A (holoIR-A); [2]) of 215 nM, a Ki (human IR-A (holoIR-A); [3]) of 203 nM and a Ki (human IR-A (holoIR-A); [4]) of 265 nM. For the same molecule, the Ki (human IR-A (holoIR-A); [5]) was 177 nM, the “hIRA Phosph IC50 Run 1” value [1] was 2321 nM and the “hIRA Phosph IC50 Run 2” value [1] was 2401 nM. The “hIRA Phosph IC50 Run 3” value [1] was 2832 nM and the IC50 [1] was 2520 nM.

Molecule CC[C@H](C)[C@H](NC(=O)[C@H](CCC(N)=O)NC(=O)[C@H](C)NC(=O)[C@H](C)NC(=O)[C@H](CCC(=O)O)NC(=O)[C@H](CCC(=O)O)NC(=O)[C@H](CCC(=O)O)NC(=O)[C@H](CC(C)C)NC(=O)[C@H](CO)NC(C)=O)C(=O)N[C@@H](CCC(=O)O)C(=O)N[C@H]1CSSC[C@@H](C(=O)N2CCC[C@H]2C(=O)N2CCC[C@H]2C(=O)N[C@@H](CO)C(=O)N[C@@H](CCC(=O)O)C(=O)N[C@@H](CO)C(N)=O)NC(=O)[C@H](CCCNC(=N)N)NC(=O)CNC(=O)[C@H](Cc2ccc(O)cc2)NC(=O)[C@H](C(C)C)NC(=O)[C@H](CCC(=O)O)NC1=O [Peptide W6A] (Ac-SLEEEAAQIECEVYGRCPPSES-NH2; disulfide 11-17) has a Ki (human IR-A (holoIR-A); [2]) greater than 4240 nM, a Ki (human IR-A (holoIR-A); [3]) greater than 1210 nM and a Ki (human IR-A (holoIR-A); [4]) greater than 4160 nM. For the same molecule, the Ki (human IR-A (holoIR-A); [5]) was greater than 4240 nM, the “binding of the mutant peptide to hIR-A (in words)” value (human IR-A (holoIR-A)) was “no detectable binding” and the “hIRA Phosph IC50 Run 1” value [1] was greater than 10000 nM. For the same molecule, the “hIRA Phosph IC50 Run 2” value [1] was greater than 10000 nM, the “hIRA Phosph IC50 Run 3” value [1] was greater than 10000 nM and the IC50 [1] was greater than 10000 nM.

In the case of CC[C@H](C)[C@H](NC(=O)[C@H](CCC(N)=O)NC(=O)[C@H](C)NC(=O)[C@H](Cc1c[nH]c2ccccc12)NC(=O)[C@H](CCC(=O)O)NC(=O)[C@H](CCC(=O)O)NC(=O)[C@H](CCC(=O)O)NC(=O)[C@H](CC(C)C)NC(=O)[C@H](CO)NC(C)=O)C(=O)N[C@@H](CCC(=O)O)C(=O)N[C@H]1CSSC[C@@H](C(=O)N2CCC[C@H]2C(=O)N2CCC[C@H]2C(=O)N[C@@H](CO)C(=O)N[C@@H](CCC(=O)O)C(=O)N[C@@H](CO)C(N)=O)NC(=O)[C@H](CCCNC(=N)N)NC(=O)CNC(=O)[C@H](C)NC(=O)[C@H](C(C)C)NC(=O)[C@H](CCC(=O)O)NC1=O [Peptide Y14A] (Ac-SLEEEWAQIECEVAGRCPPSES-NH2; disulfide 11-17), the Ki (human IR-A (holoIR-A); [2]) is reported as greater than 4240 nM, the Ki (human IR-A (holoIR-A); [3]) is reported as greater than 1210 nM and the Ki (human IR-A (holoIR-A); [4]) is reported as greater than 4160 nM. For the same molecule, the Ki (human IR-A (holoIR-A); [5]) was greater than 4240 nM, the “binding of the mutant peptide to hIR-A (in words)” value (human IR-A (holoIR-A)) was “no detectable binding” and the “hIRA Phosph IC50 Run 1” value [1] was greater than 10000 nM. For the same molecule, the “hIRA Phosph IC50 Run 2” value [1] was greater than 10000 nM, the “hIRA Phosph IC50 Run 3” value [1] was greater than 10000 nM and the IC50 [1] was greater than 10000 nM.
